According to ChEMBL document CHEMBL1201862, “PubChem BioAssay data set” (2004):
Active and inactive are the calls of the source.

Assays:
[1] = inhibitors of intracellular T. cruzi replication, confirmation, NIH3T3 host cells, beta-gal luminescence (AID 2044); assay type: functional, cell-based;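 further: intracellular parasites grown in NIH/3T3 mouse fibroblasts as host cells; luminescent beta-galactosidase reporter signal from transgenic T. cruzi replicating inside host cells; inhibitors lower the luminescence signal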
[2] = target: Neuropeptide Y receptor type 2 (Homo sapiens, UniProt P49146); experiment: Fluorescence-based cell-based high-throughput dose response assay for agonists of NPY-Y2. [Related pubchem assays: 1703 (Screening assay (CNGC inhibitors).), 1359 (Screening assay (NPY-Y2 potentiators or agonists).), 1304 (Screening assay (NPY-Y1 potentiators or agonists).), 1710 (Screening assay (NPY-Y2 agonists).), 1791 (Summary AID.)]; assay type: functional
[3] = target: T1, Polyadenylate-binding protein 1 (Homo sapiens, UniProt P11940); experiment: PABP1 MLLE–PAM2 binding inhibitor potency, dose response, biochemical, fluorescence polarization, FITC-PAM2 peptide (AID 602259); assay type: functional; conditions: read-out: IC50_Mean
[4] = target: T1, Polyadenylate-binding protein 1; experiment: PABP1 MLLE–PAM2 interaction inhibitors, dose response, miRNA deadenylation inhibitor project, biochemical, fluorescence polarization, Cy5-PAM2 peptide, secondary (AID 602260); assay type: functional; conditions: read-out: IC50_Mean
HEK293 [5] = experiment: Fluorescence-based counterscreen for potentiators or agonists of NPY-Y2: cell-based high-throughput dose response assay to identify inhibitors of cyclic nucleotide gated ion channel (CNGC) activity. In this assay, the parental HEK293 cell line transfected with a cyclic-nucleotide gated ion channel (CNGC)-based cAMP sensor is used to measure inhibition of isoproterenol-induced CNGC activity by test compound.; assay type: functional; conditions: Homo sapiens
[6] = target: Neuropeptide Y receptor type 1 (Homo sapiens, UniProt P25929); experiment: Fluorescence-based counterscreen for agonists of NPY-Y2: cell-based high-throughput dose response assay for agonists of NPY-Y1.; assay type: functional
[7] = cytotoxicity toward NIH3T3 fibroblasts, dose response, counter-screen, cell-based, ATP luminescence, mouse fibroblasts (AID 2010); assay type: functional;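 further: cells exposed to compound for about 90 hours before reading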
[8] = target: T2, Sphingosine 1-phosphate receptor 4 (Homo sapiens, UniProt O95977); experiment: Late stage fluorescence dose response cell-based screening assay for antagonists of the Sphingosine 1-Phosphate Receptor 4 (S1P4). [Related pubchem assays: 1524 (Confirmation screen (S1P4 antagonists).), 1510 (Primary screen (S1P4 antagonists).), 1853 (Summary AID (S1P4 antagonists).), 1692 (Dose response screen (S1P4 antagonists).)]; assay type: functional
T2 sequence (O95977 whole entry): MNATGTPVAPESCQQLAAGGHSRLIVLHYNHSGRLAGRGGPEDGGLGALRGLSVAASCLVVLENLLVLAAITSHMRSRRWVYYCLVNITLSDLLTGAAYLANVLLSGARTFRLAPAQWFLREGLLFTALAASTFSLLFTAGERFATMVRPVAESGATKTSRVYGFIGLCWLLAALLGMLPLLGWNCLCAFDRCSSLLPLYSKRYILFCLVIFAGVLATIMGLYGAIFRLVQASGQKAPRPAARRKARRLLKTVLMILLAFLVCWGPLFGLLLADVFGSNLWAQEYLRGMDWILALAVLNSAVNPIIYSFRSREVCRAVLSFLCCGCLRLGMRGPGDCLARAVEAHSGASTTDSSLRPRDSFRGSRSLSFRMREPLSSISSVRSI

[9] = Shn3 3'UTR reporter inhibitors, dose response, cell-based, Clone20 osteoblasts, firefly luciferase, cherry-picked (AID 624132); assay type: functional;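 further: firefly luciferase luminescence from reporter carrying the Shn3 3'UTR in osteoblasts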
INS1 = experiment: beta cell apoptosis inhibitors, cytokine rescue, dose response, luminescence, retest (AID 449756); assay type: functional, cell-based; conditions: Rattus norvegicus;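 further: cell death triggered by IL-1 beta plus TNF-alpha plus IFN-gamma mixture; protective hits raise ATP signal compared with cytokine alone wells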
BJ [10] = experiment: cells; assay type: functional, cell-based; conditions: Homo sapiens
[11] = control 3'UTR Renilla luciferase suppression, dose response, counter-screen for Shn3 inhibitor project, cell-based, Clone20-Shn3RL, cherry-picked (AID 624133); assay type: functional
[12] = HepG2 cell cytotoxicity, dose response, cytotoxicity control for Shn3 inhibitor project, CellTiter-Glo, cherry-picked (AID 624134); assay type: functional, cell-based
[13] = target: T2, Sphingosine 1-phosphate receptor 4; experiment: Fluorescence dose response cell-based high throughput screening assay for antagonists of the Sphingosine 1-Phosphate Receptor 4 (S1P4). [Related pubchem assays: 1524 (Confirmation in triplicates.), 1510 (Primary screen.)]; assay type: functional
[14] = target: Sphingosine 1-phosphate receptor 1 (Homo sapiens, UniProt P21453); assay type: functional;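 further: Tango beta-arrestin reporter U2OS cells stimulated with S1P near its EC80; inhibitor potency meaning antagonism of receptor activation by the natural agonist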
[15] = microbe, parasite or virus in culture; assay type: functional; conditions: Mycobacterium tuberculosis
BJ [16] = experiment: cytotoxicity toward BJ-TERT fibroblasts, dose response, cell-based, RAS-independent, luminescence (AID 1933); assay type: functional; conditions: Homo sapiens
[17] = cytotoxicity toward DRD oncogenic fibroblasts, dose response, cell-based, non-viral oncogenic, luminescence (AID 1934); assay type: functional; conditions: Homo sapiens
[18] = target: Neurotensin receptor type 1 (Homo sapiens, UniProt P30989); assay type: functional;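 further: Image-based confirmatory dose-response assay measuring agonist activity at NTR1; NTR1-expressing U2OS osteosarcoma cells imaged for beta-arrestin GFP spot formation; agonist potency where compounds increase beta-arrestin recruitment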
BJ [19] = experiment: cytotoxicity toward BJ-TERT-LT-ST fibroblasts, dose response, cell-based, RAS-independent, luminescence (AID 1935); assay type: functional; conditions: Homo sapiens;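 further: BJ fibroblasts immortalized with TERT plus LT and ST oncogenes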
[20] = target: T1, Polyadenylate-binding protein 1; experiment: PABP poly(A) RNA binding inhibitors, primary screen, biochemical, fluorescence polarization, uHTS (AID 2014)
[21] = target: Eukaryotic translation initiation factor 4H (Homo sapiens, UniProt Q15056); experiment: human eIF4H binding inhibitors, primary screen, translation initiation inhibitor project, biochemical, uHTS, fluorescence polarization (AID 2012)
Coagulation factor XII = Coagulation factor XII (Homo sapiens, UniProt P00748); experiment: FXIIa inhibitor potency, concentration-response, biochemical (AID 716); assay type: functional
[22] = target: T3, Nucleotide-binding oligomerization domain-containing protein 1 (Homo sapiens, UniProt Q9Y239); experiment: NOD1 signaling inhibitors, SAR follow-up, revised (AID 2333); assay type: functional
T3 sequence (Q9Y239 whole entry): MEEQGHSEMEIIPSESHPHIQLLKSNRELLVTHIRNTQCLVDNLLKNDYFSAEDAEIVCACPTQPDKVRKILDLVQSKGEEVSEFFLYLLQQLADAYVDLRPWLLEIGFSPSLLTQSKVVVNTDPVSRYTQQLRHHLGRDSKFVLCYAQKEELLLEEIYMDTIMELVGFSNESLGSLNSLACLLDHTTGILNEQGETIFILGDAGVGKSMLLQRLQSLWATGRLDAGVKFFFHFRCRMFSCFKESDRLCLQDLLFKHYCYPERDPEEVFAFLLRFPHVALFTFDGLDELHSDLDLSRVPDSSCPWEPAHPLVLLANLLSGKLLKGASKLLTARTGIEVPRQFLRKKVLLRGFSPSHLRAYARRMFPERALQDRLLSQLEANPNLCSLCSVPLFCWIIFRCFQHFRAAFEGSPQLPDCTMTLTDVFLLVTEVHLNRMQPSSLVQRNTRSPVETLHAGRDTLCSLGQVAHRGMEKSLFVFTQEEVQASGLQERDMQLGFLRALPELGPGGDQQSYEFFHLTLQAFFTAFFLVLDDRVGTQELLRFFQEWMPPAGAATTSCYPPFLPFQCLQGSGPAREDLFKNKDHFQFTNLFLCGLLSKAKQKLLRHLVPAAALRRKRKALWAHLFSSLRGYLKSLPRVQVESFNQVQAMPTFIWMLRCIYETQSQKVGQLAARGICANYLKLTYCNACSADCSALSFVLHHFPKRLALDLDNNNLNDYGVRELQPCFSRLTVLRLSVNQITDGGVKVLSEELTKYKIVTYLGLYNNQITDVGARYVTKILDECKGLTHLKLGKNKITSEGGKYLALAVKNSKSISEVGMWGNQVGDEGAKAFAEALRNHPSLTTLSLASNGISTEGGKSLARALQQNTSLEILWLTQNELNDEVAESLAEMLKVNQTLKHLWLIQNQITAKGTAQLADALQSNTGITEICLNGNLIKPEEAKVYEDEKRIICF

[23] = target: Nucleotide-binding oligomerization domain-containing protein 2 (Homo sapiens, UniProt Q9HC29); experiment: PubChem AID 2334; assay type: functional
Tumor necrosis factor = Tumor necrosis factor (Homo sapiens, UniProt P01375); experiment: TNFa-triggered NF-kB activation inhibitors, SAR follow-up, cell-based, revised (AID 2337); assay type: functional
HEK293 [24] = experiment: cells; conditions: Homo sapiens
T-cell = experiment: inhibitors of CD8+ T cell–vesicle binding, dose response, mouse 2C CD8+ T cells, flow cytometry (AID 485284); assay type: functional
[25] = NIH-3T3 fibroblast cytotoxicity, dose response, cytotoxicity control, cell-based, fluorescence, Alamar Blue, secondary assay (AID 2327); assay type: functional;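 further: NIH-3T3 mouse fibroblasts cultured with fluconazole at 8 µg/mL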
Trypanosoma cruzi = experiment: growth inhibition of intracellular Trypanosoma cruzi, dose response, cell-based, plate reader, dry powder, set 3 (AID 493197); assay type: functional
[26] = Vero E6 cell cytotoxicity, dose response, cytotoxicity control for non-replicating M. tuberculosis project, secondary assay (AID 492998); assay type: functional, VeroE6; conditions: Vero C1008
[27] = A cytotoxicity screen of small molecule inhibitors of the PhoP region in Salmonella typhi identified in the primary screen. [Related pubchem assays: 1850, 1864, 1985 ]; assay type: functional
[28] = HepG2 cell cytotoxicity, dose response, cytotoxicity control for non-replicating M. tuberculosis project (AID 489018); assay type: functional; conditions: Mycobacterium tuberculosis
[29] = THP-1 cell cytotoxicity, dose response, cytotoxicity control for non-replicating M. tuberculosis project (AID 489025); assay type: functional
cells [30] = experiment: cells
cells [31] = assay type: functional
[32] = cytotoxicity in NIH/3T3 mouse fibroblasts, dose response, cytotoxicity control, cell-based, mouse embryonic fibroblasts, dry powder, set 2 (AID 493247); assay type: functional; conditions: Fibroblast
[33] = C. albicans growth with fluconazole, confirmation, fluorescence, retest (AID 2467); assay type: functional, cell-based
[34] = target: Photoreceptor-specific nuclear receptor (Homo sapiens, UniProt Q9Y5X4); assay type: functional;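 further: potency for compounds that break the NR2E3 corepressor complex and count as activators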
[35] = target: Peroxisome proliferator-activated receptor gamma/Nuclear receptor corepressor 2 (Homo sapiens, UniProt P37231+Q9Y618); assay type: functional

T1 sequence (P11940 whole entry): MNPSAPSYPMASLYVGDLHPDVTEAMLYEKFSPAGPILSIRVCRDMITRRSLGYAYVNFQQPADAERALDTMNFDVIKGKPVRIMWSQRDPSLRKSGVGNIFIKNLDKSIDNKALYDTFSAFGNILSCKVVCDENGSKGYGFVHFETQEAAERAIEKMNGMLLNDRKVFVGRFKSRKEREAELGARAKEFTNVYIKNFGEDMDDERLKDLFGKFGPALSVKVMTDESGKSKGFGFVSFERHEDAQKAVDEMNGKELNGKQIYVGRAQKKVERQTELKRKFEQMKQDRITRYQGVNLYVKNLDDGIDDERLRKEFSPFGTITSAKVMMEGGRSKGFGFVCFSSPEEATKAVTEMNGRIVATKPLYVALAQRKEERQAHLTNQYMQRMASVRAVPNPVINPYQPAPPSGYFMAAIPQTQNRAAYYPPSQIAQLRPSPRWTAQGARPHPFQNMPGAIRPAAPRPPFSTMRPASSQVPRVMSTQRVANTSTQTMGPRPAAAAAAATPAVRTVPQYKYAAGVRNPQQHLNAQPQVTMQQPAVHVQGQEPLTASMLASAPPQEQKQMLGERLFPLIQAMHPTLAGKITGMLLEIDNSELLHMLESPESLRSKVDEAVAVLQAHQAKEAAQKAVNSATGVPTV
Sequence of Tumor necrosis factor (P01375 whole entry): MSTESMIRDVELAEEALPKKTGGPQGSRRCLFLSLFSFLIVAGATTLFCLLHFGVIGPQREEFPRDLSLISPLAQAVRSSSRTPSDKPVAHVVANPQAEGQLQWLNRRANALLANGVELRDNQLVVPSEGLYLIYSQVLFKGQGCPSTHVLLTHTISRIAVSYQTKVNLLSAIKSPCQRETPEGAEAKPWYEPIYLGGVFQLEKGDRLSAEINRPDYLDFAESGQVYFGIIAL
Sequence of Neurotensin receptor type 1 (P30989 whole entry): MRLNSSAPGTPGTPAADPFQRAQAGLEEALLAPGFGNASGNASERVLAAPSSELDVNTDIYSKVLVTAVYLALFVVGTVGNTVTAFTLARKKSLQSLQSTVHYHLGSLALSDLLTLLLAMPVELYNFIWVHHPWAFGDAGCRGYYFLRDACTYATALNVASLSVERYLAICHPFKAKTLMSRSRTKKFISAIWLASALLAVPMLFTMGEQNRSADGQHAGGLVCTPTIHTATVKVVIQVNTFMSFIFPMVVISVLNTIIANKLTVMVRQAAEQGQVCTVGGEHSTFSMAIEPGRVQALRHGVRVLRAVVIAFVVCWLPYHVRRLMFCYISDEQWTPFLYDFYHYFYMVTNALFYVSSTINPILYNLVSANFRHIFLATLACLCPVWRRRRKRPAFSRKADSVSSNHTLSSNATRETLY
Sequence of Neuropeptide Y receptor type 2 (P49146 whole entry): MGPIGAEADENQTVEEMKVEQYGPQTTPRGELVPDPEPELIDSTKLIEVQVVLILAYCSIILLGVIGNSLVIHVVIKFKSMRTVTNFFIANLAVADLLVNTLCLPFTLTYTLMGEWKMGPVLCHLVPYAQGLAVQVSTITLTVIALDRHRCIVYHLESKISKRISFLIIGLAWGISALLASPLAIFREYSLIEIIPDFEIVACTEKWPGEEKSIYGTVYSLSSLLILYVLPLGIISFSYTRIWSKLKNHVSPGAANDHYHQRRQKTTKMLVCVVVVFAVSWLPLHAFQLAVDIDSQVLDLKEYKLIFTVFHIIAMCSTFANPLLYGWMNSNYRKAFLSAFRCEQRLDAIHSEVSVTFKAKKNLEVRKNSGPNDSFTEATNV
Sequence of Neuropeptide Y receptor type 1 (P25929 whole entry): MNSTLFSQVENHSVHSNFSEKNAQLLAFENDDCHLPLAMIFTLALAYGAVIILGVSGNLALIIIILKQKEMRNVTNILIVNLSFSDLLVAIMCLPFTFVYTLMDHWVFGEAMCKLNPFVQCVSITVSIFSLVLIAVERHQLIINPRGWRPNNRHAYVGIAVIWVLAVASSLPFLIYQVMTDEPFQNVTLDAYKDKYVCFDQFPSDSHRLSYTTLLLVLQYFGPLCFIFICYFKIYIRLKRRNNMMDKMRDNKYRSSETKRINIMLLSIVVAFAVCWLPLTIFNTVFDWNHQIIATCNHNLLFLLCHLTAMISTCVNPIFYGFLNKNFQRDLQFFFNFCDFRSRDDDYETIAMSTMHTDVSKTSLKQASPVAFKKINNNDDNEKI
Sequence of Sphingosine 1-phosphate receptor 1 (P21453 whole entry): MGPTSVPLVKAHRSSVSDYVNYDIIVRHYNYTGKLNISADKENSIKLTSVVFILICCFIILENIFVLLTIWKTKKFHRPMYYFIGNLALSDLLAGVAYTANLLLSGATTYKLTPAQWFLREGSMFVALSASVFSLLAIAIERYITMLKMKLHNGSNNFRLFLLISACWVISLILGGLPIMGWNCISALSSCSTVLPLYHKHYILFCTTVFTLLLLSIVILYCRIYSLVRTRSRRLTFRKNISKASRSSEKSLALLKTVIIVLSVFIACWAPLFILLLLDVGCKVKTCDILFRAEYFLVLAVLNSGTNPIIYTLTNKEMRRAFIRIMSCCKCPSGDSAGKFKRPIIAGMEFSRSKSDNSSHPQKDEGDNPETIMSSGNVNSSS
Sequence of Photoreceptor-specific nuclear receptor (Q9Y5X4 whole entry): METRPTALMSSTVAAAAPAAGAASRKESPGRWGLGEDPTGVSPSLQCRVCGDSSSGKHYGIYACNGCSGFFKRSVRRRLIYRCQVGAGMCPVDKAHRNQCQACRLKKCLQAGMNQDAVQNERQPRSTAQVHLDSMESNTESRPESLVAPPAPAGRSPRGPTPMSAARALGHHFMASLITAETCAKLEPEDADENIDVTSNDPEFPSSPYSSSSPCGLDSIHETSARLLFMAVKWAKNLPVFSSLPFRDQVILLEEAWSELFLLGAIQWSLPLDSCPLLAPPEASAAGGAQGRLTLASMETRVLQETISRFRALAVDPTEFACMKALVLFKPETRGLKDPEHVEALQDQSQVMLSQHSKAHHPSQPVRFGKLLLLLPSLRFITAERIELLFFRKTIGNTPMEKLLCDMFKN
Sequence of Nucleotide-binding oligomerization domain-containing protein 2 (Q9HC29 whole entry, the tested form may be a part): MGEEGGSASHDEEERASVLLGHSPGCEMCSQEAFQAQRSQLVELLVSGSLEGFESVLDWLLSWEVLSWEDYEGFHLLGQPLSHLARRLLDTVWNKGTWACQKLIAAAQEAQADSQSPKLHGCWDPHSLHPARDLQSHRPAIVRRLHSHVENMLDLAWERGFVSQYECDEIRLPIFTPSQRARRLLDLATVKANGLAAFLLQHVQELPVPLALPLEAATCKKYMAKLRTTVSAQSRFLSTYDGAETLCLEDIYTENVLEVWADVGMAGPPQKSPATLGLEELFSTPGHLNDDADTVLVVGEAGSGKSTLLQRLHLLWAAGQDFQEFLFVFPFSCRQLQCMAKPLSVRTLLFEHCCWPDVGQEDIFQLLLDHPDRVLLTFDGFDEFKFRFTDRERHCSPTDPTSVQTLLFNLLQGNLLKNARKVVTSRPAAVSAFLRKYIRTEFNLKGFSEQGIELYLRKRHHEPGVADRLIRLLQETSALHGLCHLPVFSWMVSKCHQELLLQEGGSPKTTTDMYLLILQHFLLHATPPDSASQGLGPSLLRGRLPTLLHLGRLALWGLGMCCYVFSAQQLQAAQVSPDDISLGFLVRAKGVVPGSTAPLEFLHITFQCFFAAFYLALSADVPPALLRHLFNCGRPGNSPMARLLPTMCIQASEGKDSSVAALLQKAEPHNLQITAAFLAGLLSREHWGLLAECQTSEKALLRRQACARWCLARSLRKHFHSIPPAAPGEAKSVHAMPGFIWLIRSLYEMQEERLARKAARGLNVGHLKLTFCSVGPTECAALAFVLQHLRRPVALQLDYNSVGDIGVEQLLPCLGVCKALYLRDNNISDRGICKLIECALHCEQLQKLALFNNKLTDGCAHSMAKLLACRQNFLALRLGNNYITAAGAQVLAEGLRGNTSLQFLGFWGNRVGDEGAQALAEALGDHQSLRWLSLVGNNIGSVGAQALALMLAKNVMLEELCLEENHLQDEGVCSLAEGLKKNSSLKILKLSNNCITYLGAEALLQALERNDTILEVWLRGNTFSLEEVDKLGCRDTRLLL
Sequence of Coagulation factor XII (P00748 20-372 limits assumed): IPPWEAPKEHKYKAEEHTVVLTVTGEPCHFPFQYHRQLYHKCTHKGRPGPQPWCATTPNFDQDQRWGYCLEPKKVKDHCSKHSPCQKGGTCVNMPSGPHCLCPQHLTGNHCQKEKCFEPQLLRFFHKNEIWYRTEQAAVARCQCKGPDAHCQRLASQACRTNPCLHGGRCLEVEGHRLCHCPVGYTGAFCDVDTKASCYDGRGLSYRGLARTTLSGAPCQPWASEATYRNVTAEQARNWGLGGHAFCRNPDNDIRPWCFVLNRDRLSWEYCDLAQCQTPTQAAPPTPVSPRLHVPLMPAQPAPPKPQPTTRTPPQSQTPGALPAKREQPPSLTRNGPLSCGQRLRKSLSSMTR
Sequence of Coagulation factor XII (P00748 373-615 limits assumed): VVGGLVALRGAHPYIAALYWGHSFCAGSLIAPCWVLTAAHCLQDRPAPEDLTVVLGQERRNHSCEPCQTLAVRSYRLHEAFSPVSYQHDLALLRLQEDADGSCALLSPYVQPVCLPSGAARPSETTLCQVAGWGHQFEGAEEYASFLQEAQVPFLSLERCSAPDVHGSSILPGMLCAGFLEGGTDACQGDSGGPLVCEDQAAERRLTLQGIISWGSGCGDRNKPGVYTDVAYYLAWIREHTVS

COc1ccc(N=C(S)NC(NC(=O)c2cccc(Cl)c2)C(Cl)(Cl)Cl)c([N+](=O)[O-])c1 (centres undefined)
EC50 [1]: 1.6 µM (active)
EC50 [2]: > 35.4 µM (not active)
IC50 [3]: > 66 µM (inactive)
IC50 [4]: > 66 µM (inactive)
EC50 (HEK293 [5]): > 35.4 µM (not active)
EC50 [6]: 16.7 µM (not active)
EC50 [7]: > 30 µM (not active)

O=C(/C(=C/c1ccc(Cl)cc1)c1nc2ccccc2[nH]1)c1cccs1
IC50 [8]: 0.737 µM (active)
AC50 [9]: 2.66 µM (active)
AC50 (INS1): 3.71 µM (active)
EC50 (BJ [10]): 9.34 µM (active)
EC50 [1]: 1.03 µM (active)
AC50 [11]: 8.35 µM (active)
AC50 [12]: 8.26 µM (active)
IC50 [13]: 0.37 µM (active)
IC50 [14]: 6.77 µM (active)
CC50 [15]: 2.9 µM (active)
EC50 (BJ [16]): 4.27 µM (inconclusive)
EC50 [17]: 5.28 µM (inconclusive)
EC50 [18]: 12.6 µM (active)
EC50 [7]: 5.47 µM (active)
EC50 (BJ [19]): 3.71 µM (inconclusive)

O=C(COC(=O)CCC(=O)c1ccc(Cl)cc1)NCc1ccco1
IC50 [20]: 26.7 µM (active)
IC50 [21]: 11.1 µM (active)

CCOC(=O)c1[nH]c2ccc(OC)cc2c1NC(=O)N1CCOCC1
IC50 (Coagulation factor XII): > 50 µM (inactive)

CCC1CCc2c(sc(NC(=O)c3ccccc3Br)c2C(=O)OC)C1 (centres undefined)
IC50 [22]: > 20 µM (inactive)
IC50 [23]: > 20 µM (inactive)
IC50 (Tumor necrosis factor): > 20 µM (inactive)
IC50 (HEK293 [24]): > 20 µM (inactive)

CCOC(=O)/C=C1\SCC(=O)N1CC(=O)NC1CCCCC1
EC50 (T-cell): 7.17 µM (active)

O=C(CCC(=O)Nc1ccc(Cl)cc1Cl)N/N=C/c1ccc([N+](=O)[O-])o1
EC50 [25]: 8.66 µM (inconclusive)
AC50 (Trypanosoma cruzi): < 0.003 µM (active)
CC50 [26]: > 20 µM (active)
AC50 (INS1): 15.2 µM (active)
EC50 [27]: > 50 µM (active)
EC50 [1]: < 0.1 µM (active)
CC50 [28]: 14 µM (active)
CC50 [29]: 17.4 µM (active)
EC50 (cells [30]): 0.007 µM (active)
IC50 (cells [31]): 0.85 µM (active)
AC50 [32]: 11.4 µM (active)
EC50 [33]: 2.3 µM (active)

O=C(C1=C(O)C(=O)N(CCCN2CCOCC2)C1c1ccc(Cl)cc1)c1cc2ccccc2o1 (centres undefined)
IC50 [34]: > 39.8 µM (not active)
IC50 [35]: 5.14 µM (active)
